{"source": "patent US8188326B2", "about": "“Process for producing adamantane” (Mitsubishi Gas Chemical Company, Inc., priority 2008, dated 2012)", "assay_type": "physicochemical", "method": "FIG. 1 is a graph showing the measurement results of the solubility of adamantane (hereinafter, occasionally referred to simply as “ADM”) in TCD (mol %=ADM mol/(exo-TCD+endo-TCD+ADM)mol×100).\nSpecifically, at 80° C., with respect to the purity of 80% of mixed TCD containing exo-TCD of 99% and endo-TCD of 1% (hereinafter, referred to simply as “exo-TCD (99)”), the total ADM solubility is 20 mol %. […] It is preferable to control the yield (generation amount) of adamantane to be equal to or less than such a level of ADM solubility.", "data": [{"smiles": "C1C2CC3CC1CC(C2)C3", "note": "[adamantane, tricyclo[3.3.1.1^3,7]decane]", "values": [{"measurement": "total ADM solubility of adamantane with respect to TCD", "value": 12.3, "unit": "mol %"}]}]}
